Biological target: T1, PPARalpha (Homo sapiens, UniProt Q07869)
T1 construct: human PPARalpha receptor (amino acids S167-Y468); expressed in transfected cells; host or cells: HEK (human embryo kidney) cells, stably transfected; pcDNA3 vector, CMV promoter
T1 sequence (Q07869 167-468): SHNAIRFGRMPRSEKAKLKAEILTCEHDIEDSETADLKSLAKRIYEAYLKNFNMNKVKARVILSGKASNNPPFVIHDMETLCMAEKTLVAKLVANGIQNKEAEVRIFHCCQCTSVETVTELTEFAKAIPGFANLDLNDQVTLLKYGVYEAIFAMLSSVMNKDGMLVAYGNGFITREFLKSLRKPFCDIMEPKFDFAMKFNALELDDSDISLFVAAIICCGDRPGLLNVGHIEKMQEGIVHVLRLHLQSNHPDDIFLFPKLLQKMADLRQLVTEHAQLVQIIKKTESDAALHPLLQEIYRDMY
Assay: Cellular PPARalpha assay (stably transfected HEK luciferase reporter cell line)
Format: cell-based
Settings: GR-GAL4-humanPPARalpha-LBD
Method: Determination of EC50 Values of PPAR agonists in the Cellular PPARalpha Assay
The potency of substances which bind to human PPARA and activate in an agonistic manner is analyzed using a stably transfected HEK cell line (HEK =human embryo kidney) which is referred to here as PPARalpha reporter cell line. It contains two genetic elements, a luciferase reporter element (pδM-GAL4-Luc-Zeo) and a PPARalpha fusion protein (GR-GAL4-humanPPARα-LBD) which mediates expression of the luciferase reporter element depending on a PPARalpha ligand. The stably and constitutively expressed fusion protein GR-GAL4-humanPPARalpha-LBD binds in the cell nucleus of the PPARalpha reporter cell line via the GAL4 protein portion to the GAL4 DNA binding motifs 5′-upstream of the luciferase reporter element which is integrated in the genome of the cell line. There is only little expression of the luciferase reporter gene without addition of a PPARalpha ligand if fatty acid-depleted fetal calf serum (cs-FCS) is used in the assay. PPARα ligands bind and activate the PPARα fusion protein and thereby bring about expression of the luciferase reporter gene. The luciferase which is formed can be detected by means of chemiluminescence via an appropriate substrate.
The PPARalpha reporter cell line was prepared in 2 stages. Firstly, the luciferase reporter element was constructed and stably transfected into HEK cells. For this purpose, five binding sites of the yeast transcription factor GAL4 (each 5′-CGGAGTACTGTCCTCCGAG-3′) (SEQ ID No. 1) were cloned in 5′-upstream of a 68 bp-long minimal MMTV promoter (Genbank Accession # V01 175). The minimal MMTV promoter section contains a CCAAT box and a TATA element in order to enable efficient transcription by RNA polymerase 11. The cloning and sequencing of the GAL4-MMTV construct took place in analogy to the description of Sambrook J. et. al. (Molecular cloning, Cold Spring Harbor Laboratory Press, 1989). Then the complete Photinus pyralis gene (Genbank Accession # M15077) was cloned in 3′-downstream of the GAL4-MMTV element. After sequencing, the luceriferase reporter element consisting of five GAL4 binding sites, MMTV promoter and luciferase gene was recloned into a plasmid which confers zeocin resistance in order to obtain the plasmid pδM-GAL4-Luc-Zeo. This vector was transfected into HEK cells in accordance with the statements in Ausubel, F. M. et al. (Current protocols in molecular biology, Vol. 1-3, John Wiley & Sons, Inc., 1995).
In a second step, the PPARalpha fusion protein (GR-GAL4-humanPPARalpha-LBD was introduced into the stable cell clone described. For this purpose, initially the cDNA coding for the N-terminal 76 amino acids of the glucocorticoid receptor (Genbank Accession # P04150) was linked to the cDNA section coding for amino acids 1-147 of the yeast transcription factor GAL4 (Genbank Accession # P04386). The cDNA of the ligand-binding domain of the human PPARalpha receptor (amino acids S167-Y468; Genbank Accession # S74349) was cloned in at the 3′-end of this GR-GAL4 construct. The fusion construct prepared in this way (GR-GAL4-humanPPARalpha-LBD) was recloned into the plasmid pcDNA3 (from Invitrogen) in order to enable constitutive expression therein by the cytomegalovirus promoter. This plasmid was linearized with a restriction endonuclease and stably transfected into the previously described cell clone containing the luciferase reporter element. The finished PPARalpha reporter cell line which contains a luciferase reporter element and constitutively expresses the PPARalpha fusion protein (GR-GAL4-human PPARalpha-LBD) was isolated by selection with zeocin (0.5 mg/ml) and G418 (0.5 mg/ml).
The activity of PPARalpha agonists is determined in a 3-day assay which is described below: […]

Row | Structure (SMILES) | EC50
1 | CCC(CCO[C@@H]1CCC[C@H](OCc2nc(-c3ccc(F)cc3)oc2C)C1)C(=O)O (stereo partly drawn) [Example 1, 2-Ethyl-4{(1R,3S)-3-[2-(4-fluorophenyl)-5-methyloxazol-4-ylmethoxy]-cyclohexyloxy}butanoic acid] | 41 nM
2 | Cc1cccc(-c2nc(CO[C@H]3CCC[C@@H](OCC4(C(=O)O)CC4)C3)c(C)o2)c1 [Example 5, (1R,3S)-1-[3-(5-methyl-2-m-tolyloxazol-4-ylmethoxy)cyclohexyloxymethyl]cyclo-propanecarboxylic acid] | 69 nM
3 | COCC(CO[C@@H]1CCC[C@H](OCc2nc(-c3cccc(C)c3)oc2C)C1)C(=O)O (stereo partly shown) [Example 8, (1R′,3S′)-2R/S-Methoxymethyl-3-[3-(5-methyl-2-m-tolyloxazol-4-ylmethoxy)cyclo-hexyloxy]propionic acid] | 24 nM
4 | Cc1cccc(-c2nc(CO[C@H]3CCC[C@@H](OCC(OCc4ccc(C(C)(C)C)cc4)C(=O)O)C3)c(C)o2)c1 (stereo partly drawn) [Example 18, 3-[(1R,3S)-3-(5-Methyl-2-m-tolyloxazol-4-ylmethoxy)cyclohexyloxy]-2-(4-tert-butylbenzyloxy)propanoic acid] | 1.5 nM
5 | C#CCOC(CO[C@@H]1CCC[C@H](OCc2nc(-c3cccc(C)c3)oc2C)C1)C(=O)O (stereo partly drawn) [Example 22, 3-[(1R,3S)-3-(5-Methyl-2-m-tolyloxazol-4-ylmethoxy)cyclohexyloxy]-2-(2-propynyl-oxy)propionic acid] | 43 nM
6 | Cc1cccc(-c2nc(CO[C@H]3CCC[C@@H](OCC(OC/C=C/c4ccccc4)C(=O)O)C3)c(C)o2)c1 (stereo partly drawn) [Example 25, 3-[(1R,3S)-3-(5-Methyl-2-m-tolyloxazol-4-ylmethoxy)cyclohexyloxy]-2-(3-phenyl-2-propenyloxy)propionic acid] | 6.2 nM
7 | COC(CO[C@@H]1CCC[C@H](OCc2nc(-c3ccc4ccccc4c3)oc2C)C1)C(=O)O (stereo partly drawn) [Example 35, 2-Methoxy-3-{(1R,3S)-3-[5-methyl-2-(3-naphthyl)oxazol-4-ylmethoxy]cyclohexyl-oxy}propionic acid] | 84 nM
8 | COC(CO[C@@H]1CCC[C@H](OCc2nc(-c3ccc(C)cc3C)oc2C)C1)C(=O)O (stereo partly drawn) [Example 36, 2-Methoxy-3-{(1R,3S)-3-[5-methyl-2-(2,4-dimethylphenyl)oxazol-4-ylmethoxy]-cyclohexyloxy}propionic acid] | 14 nM
9 | CCCOC(CO[C@@H]1CCC[C@H](OCc2nc(-c3ccc(C)cc3)oc2C)C1)C(=O)O (stereo partly drawn) [Example 47, 3-{(1R,3S)-3-[5-Methyl-2-(4-methylphenyl)oxazol-4-ylmethoxy]cyclohexyloxy}-2-propoxypropionic acid] | 0.8 nM
10 | CCCOC(CO[C@@H]1CCC[C@H](OCc2nc(-c3cccc(C(F)(F)F)c3)oc2C)C1)C(=O)O (stereo partly drawn) [Example 52, 3-{(1R,3S)-3-[5-Methyl-2-(3-trifluoromethylphenyl)oxazol-4-ylmethoxy]cyclohexyl-oxy}-2-propoxypropionic acid] | 22 nM
11 | CCOC(CO[C@@H]1CCC[C@H](OCc2nc(-c3ccc(OC(F)(F)F)cc3)oc2C)C1)C(=O)O (stereo partly drawn) [Example 60, 2-Ethoxy-3-{(1R,3S)-3-[5-methyl-2-(4-trifluoromethoxyphenyl)oxazol-4-ylmethoxy]-cyclohexyloxy}propionic acid] | 26 nM
12 | Cc1ccc(-c2nc(CO[C@H]3CCC[C@@H](OC[C@@H](OCc4ccc(C(F)(F)F)cc4)C(=O)O)C3)c(C)o2)cc1 [Example 81, (R)-3-[(1R,3S)-3-(5-Methyl-2-(4-methylphenyl)oxazol-4-ylmethoxy)cyclohexyloxy]-2-(4-trifluoromethylbenzyloxy)propionic acid] | 0.6 nM
13 | Cc1cccc(-c2nc(CO[C@H]3CCC[C@@H](OCC(Cc4cccc(C(F)(F)F)c4)C(=O)O)C3)c(C)o2)c1 (stereo partly drawn) [Example 91, 2-[(1R,3S)-3-(5-Methyl-2-m-tolyloxazol4-ylmethoxy)cyclohexyloxymethyl]-3-(3-trifluoromethylphenyl)propionic acid] | 78 nM

— US7335671B2, “Arylcycloalkyl-substituted alkanoic acid derivatives, processes for their preparation and their use as pharmaceuticals” (Sanofi-Aventis Deutschland GmbH, priority 2003, dated 2008)
